Measured values published in ChEMBL document CHEMBL1201862, “PubChem BioAssay data set” (2004).
Active and inactive are the calls of the source.

Experiments:
[1] = target: CAAX prenyl protease 2 (Homo sapiens, UniProt Q9Y256); assay: inhibition of Ras-converting CAAX protease Rce1 – biochemical, yeast membranes, quenched-peptide fluorescence, cherry-pick, dose response (AID 588849)
[2] = target: CAAX prenyl protease 2 (Saccharomyces cerevisiae S288c, UniProt Q03530); format: biochemical
[3] = target: Trypsin (Sus scrofa, UniProt P00761); assay: trypsin protease activity blockade – biochemical, quenched peptide fluorescence, cherry-pick, selectivity assay for Rce1 protease inhibitor project, dose response (AID 488789)
Chain of Trypsin (P00761 whole entry): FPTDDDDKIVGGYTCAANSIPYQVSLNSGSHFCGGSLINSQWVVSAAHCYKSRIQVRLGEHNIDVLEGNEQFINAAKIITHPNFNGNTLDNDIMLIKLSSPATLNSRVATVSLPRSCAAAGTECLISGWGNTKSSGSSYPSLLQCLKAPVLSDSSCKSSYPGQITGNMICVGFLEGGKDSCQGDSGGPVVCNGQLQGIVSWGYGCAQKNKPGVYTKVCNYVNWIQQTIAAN

[4] = target: T1, Ubiquitin-conjugating enzyme E2 N (Homo sapiens, UniProt P61088); format: functional;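 further: Dose-response confirmation in a TR-FRET assay detecting UBC13-driven polyubiquitin chain formation, inhibition measured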
T1 sequence (P61088 whole entry): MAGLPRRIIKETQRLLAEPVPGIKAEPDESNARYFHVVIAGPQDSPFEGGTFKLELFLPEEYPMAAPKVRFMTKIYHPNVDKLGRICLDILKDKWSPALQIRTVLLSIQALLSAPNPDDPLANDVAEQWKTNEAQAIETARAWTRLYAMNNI

[5] = Fluorescence-based cell-based high throughput dose response assay for inhibitors of the interaction of nucleotide-binding oligomerization domain containing 2 (NOD2) and the receptor-interacting serine-threonine kinase 2 (RIPK2).; format: functional; details: Homo sapiens
[6] = target: T2, Microphthalmia-associated transcription factor (Homo sapiens, UniProt O75030); assay: reducers of TRPM1 reporter luminescence, concentration series – cell-based, SK-MEL-5, cherry-picked, set 3, MITF inhibitor project, dose response (AID 493073); format: functional;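 further: SK-MEL-5 melanoma cells with luciferase driven by the MITF target TRPM1 promoter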
T2 sequence (O75030 whole entry): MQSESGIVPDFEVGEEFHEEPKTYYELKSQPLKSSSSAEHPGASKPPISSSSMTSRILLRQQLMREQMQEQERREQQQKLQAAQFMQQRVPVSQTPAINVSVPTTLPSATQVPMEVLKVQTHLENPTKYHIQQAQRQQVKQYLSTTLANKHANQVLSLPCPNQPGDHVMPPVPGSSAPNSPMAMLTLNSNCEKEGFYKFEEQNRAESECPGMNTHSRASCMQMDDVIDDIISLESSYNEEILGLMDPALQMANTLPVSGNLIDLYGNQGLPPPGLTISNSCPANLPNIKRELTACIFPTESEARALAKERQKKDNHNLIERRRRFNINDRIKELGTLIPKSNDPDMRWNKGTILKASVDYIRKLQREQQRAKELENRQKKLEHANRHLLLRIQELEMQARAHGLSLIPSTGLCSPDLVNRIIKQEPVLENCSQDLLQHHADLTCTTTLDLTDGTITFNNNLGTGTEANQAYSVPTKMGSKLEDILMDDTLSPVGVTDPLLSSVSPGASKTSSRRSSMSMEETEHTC

[7] = test system: HEK293; assay: cells; details: Homo sapiens
[8] = target: Paired box protein Pax-8 (Homo sapiens, UniProt Q06710); assay: PAX8 transcriptional activity inhibition in RMG-I – RMG-I cells, luciferase, cherry-pick, dose response (AID 687027); format: functional, cell-based;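 further: luciferase reporter driven by Pax8 target thyroperoxidase promoter measured by SteadyGlo luminescence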
[9] = test system: HEK293; assay: cells; details: Homo sapiens; remark: listed apart in the source
[10] = target: Dual specificity tyrosine-phosphorylation-regulated kinase 1A (Rattus norvegicus, UniProt Q63470); format: biochemical, Homo sapiens
[11] = target: Large T antigen (Simian virus 40, UniProt P03070); format: functional, Betapolyomavirus macacae;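 further: Confirmatory-stage PubChem screen for compounds that inhibit SV40 T antigen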
Chain of Large T antigen (P03070 whole entry, the tested form may be a part): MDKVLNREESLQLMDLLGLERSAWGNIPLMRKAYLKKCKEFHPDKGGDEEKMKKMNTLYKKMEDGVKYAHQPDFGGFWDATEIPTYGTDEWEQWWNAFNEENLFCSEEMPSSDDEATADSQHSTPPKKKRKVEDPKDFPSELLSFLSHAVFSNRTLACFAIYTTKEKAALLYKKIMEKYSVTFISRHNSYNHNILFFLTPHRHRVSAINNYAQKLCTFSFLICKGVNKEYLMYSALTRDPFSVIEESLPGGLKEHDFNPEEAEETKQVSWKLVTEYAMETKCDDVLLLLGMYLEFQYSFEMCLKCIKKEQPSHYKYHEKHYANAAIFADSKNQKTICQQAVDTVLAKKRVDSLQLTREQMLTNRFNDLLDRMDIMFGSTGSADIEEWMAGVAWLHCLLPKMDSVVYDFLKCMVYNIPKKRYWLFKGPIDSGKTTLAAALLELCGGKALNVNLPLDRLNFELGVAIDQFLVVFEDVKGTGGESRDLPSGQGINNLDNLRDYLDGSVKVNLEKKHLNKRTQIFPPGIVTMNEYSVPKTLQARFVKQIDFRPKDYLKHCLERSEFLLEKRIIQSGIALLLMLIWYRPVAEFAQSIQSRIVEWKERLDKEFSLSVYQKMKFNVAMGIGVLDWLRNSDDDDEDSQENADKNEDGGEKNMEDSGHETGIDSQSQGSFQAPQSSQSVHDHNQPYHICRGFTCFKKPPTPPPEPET

[12] = target: T3, Polyadenylate-binding protein 1 (Homo sapiens, UniProt P11940); assay: MLLE domain peptide-binding blockers, IC50 – biochemical, fluorescence polarization, FITC-PAM2 peptide, dose response (AID 602259); format: functional; details: read-out: IC50_Mean
T3 sequence (P11940 whole entry, the tested form may be a part): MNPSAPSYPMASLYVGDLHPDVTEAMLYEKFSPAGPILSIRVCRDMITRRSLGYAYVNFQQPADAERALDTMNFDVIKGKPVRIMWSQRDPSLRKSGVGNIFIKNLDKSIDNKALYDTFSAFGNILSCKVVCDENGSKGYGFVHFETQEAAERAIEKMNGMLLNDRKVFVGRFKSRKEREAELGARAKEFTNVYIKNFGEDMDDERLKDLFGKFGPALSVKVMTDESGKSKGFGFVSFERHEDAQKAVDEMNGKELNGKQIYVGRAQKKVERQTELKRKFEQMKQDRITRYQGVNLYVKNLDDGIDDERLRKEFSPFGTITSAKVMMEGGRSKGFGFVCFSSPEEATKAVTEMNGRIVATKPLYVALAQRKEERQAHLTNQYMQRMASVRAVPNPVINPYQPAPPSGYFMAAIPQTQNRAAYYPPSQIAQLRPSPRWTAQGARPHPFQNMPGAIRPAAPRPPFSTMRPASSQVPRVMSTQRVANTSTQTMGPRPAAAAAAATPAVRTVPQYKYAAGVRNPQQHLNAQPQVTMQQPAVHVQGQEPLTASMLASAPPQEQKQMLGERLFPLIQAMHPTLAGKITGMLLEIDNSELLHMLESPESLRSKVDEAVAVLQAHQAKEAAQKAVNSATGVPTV

[13] = target: T3, Polyadenylate-binding protein 1; assay: MLLE binding blockers, Cy5 peptide tracer – biochemical, fluorescence polarization, Cy5-PAM2 peptide, secondary, miRNA deadenylation inhibitor project, dose response (AID 602260); format: functional; details: read-out: IC50_Mean
[14] = target: T4, Hexokinase HKDC1 (Homo sapiens, UniProt Q2TB90); assay: inhibition of HKDC1 glucose phosphorylation – biochemical, W721R variant, dose response (AID 504729); format: functional
T4 sequence (Q2TB90 whole entry): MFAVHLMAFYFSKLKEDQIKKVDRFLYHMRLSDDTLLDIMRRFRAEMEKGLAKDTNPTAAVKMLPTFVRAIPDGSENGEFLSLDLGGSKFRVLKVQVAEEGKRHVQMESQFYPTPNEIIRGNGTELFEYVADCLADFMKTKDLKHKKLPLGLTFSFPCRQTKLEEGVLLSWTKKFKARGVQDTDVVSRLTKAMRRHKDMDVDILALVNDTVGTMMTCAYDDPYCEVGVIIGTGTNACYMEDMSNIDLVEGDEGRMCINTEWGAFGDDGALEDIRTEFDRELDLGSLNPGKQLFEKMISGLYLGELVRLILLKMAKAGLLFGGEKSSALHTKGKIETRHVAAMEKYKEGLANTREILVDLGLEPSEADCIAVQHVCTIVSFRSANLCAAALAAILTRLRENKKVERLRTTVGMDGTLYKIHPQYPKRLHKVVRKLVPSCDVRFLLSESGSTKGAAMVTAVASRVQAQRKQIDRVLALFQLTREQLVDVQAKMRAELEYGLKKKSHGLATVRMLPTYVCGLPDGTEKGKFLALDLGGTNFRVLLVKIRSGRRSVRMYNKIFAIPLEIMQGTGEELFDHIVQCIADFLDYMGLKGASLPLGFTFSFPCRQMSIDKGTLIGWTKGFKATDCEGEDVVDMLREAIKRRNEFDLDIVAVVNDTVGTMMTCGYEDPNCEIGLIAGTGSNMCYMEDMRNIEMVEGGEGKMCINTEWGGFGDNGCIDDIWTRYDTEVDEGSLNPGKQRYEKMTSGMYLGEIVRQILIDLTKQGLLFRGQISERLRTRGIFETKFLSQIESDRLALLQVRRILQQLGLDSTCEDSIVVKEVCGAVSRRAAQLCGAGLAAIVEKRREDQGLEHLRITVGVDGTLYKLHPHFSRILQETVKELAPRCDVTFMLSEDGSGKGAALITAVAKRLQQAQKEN

[15] = test system: Vero; assay: viability of Vero cells under compound – cytotoxicity control for flavivirus capping enzyme inhibitors (AID 588742); format: functional; details: Chlorocebus sabaeus
[16] = target: T5, Streptokinase A (Streptococcus pyogenes serotype M1, UniProt P10520); assay: viability-normalized secreted streptokinase activity reduction – plasminogen activation absorbance, OD405, dose response (AID 1914); format: functional, Streptococcus pyogenes M1 GAS;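 further: secreted streptokinase activity via plasminogen activation per viability signal from cell pellet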
T5 sequence (P10520 whole entry): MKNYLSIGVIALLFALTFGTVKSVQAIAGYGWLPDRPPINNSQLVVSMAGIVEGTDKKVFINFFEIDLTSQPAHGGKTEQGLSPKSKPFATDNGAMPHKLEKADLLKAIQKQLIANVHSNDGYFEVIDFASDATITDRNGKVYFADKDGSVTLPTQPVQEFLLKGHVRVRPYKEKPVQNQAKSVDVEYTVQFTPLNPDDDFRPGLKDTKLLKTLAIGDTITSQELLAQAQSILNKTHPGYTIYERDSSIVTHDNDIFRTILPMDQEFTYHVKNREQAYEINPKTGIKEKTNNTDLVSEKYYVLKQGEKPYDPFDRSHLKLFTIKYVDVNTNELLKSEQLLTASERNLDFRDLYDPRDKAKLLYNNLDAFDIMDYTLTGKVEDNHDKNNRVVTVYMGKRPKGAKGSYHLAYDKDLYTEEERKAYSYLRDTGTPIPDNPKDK

[17] = test system: Vero; assay: cells; format: functional; details: Chlorocebus sabaeus
[18] = test system: Streptococcus; assay: GAS UMAA2166 growth inhibition – luminescence, BacTiterGlo, counter-screen for streptokinase expression inhibitor project, dose response (AID 1915); format: functional, organism-based;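 further: potency for reduction of bacterial viability or growth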
[19] = test system: Streptococcus sp. 'group A'; assay: Streptococcus pyogenes SK(-)GAS viability under kanamycin – luminescence, BacTiterGlo, confirmation, counter-screen for streptokinase expression inhibitor project, dose response (AID 1900); format: functional, organism-based
[20] = target: Genome polyprotein (dengue virus type 2, UniProt P29990); assay: flavivirus cap methylation enzyme inhibition – biochemical, confirmation dose response, primary screen (AID 588689); format: functional
[21] = target: Voltage-gated inwardly rectifying potassium channel KCNH2 (Homo sapiens, UniProt Q12809); details: Potency;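 further: confirmatory quantitative high-throughput screen measuring inhibition of hERG channel activity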
Chain of Voltage-gated inwardly rectifying potassium channel KCNH2 (Q12809 whole entry): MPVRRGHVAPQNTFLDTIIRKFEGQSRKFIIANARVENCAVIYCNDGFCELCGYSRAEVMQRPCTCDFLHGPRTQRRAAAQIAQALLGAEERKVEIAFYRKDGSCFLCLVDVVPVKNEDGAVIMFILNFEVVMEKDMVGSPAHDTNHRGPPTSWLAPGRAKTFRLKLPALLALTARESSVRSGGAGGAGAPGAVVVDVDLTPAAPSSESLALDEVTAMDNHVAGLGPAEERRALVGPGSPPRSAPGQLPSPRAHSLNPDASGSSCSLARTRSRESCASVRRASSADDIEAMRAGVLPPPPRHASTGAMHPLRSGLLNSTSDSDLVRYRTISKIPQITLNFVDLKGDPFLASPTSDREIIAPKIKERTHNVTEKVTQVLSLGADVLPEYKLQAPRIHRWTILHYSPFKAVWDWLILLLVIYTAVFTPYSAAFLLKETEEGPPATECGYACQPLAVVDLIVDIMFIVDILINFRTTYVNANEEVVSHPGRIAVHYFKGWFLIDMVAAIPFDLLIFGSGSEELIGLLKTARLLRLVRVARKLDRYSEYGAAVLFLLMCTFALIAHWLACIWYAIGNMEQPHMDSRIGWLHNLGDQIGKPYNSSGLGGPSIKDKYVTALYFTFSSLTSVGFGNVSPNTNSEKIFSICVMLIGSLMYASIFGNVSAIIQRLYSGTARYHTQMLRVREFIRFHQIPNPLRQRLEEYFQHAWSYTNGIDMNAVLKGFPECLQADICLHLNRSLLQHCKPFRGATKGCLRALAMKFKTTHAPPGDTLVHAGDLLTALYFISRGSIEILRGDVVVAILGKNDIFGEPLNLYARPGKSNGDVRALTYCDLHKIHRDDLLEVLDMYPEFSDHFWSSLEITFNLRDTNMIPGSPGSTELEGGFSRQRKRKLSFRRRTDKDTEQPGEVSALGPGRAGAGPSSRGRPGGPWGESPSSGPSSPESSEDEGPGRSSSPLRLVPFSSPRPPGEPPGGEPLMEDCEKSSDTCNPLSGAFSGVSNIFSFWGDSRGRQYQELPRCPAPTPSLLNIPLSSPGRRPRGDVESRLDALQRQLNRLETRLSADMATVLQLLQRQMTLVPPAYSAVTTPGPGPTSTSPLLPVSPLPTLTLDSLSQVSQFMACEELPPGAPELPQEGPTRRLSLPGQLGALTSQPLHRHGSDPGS

[22] = target: DNA topoisomerase (Yersinia pestis, UniProt A0A2S9PM60); assay: Yersinia topoisomerase I cleavage product accumulation – biochemical, cherry-pick, dose response (AID 588525)
Chain of DNA topoisomerase (A0A2S9PM60 whole entry): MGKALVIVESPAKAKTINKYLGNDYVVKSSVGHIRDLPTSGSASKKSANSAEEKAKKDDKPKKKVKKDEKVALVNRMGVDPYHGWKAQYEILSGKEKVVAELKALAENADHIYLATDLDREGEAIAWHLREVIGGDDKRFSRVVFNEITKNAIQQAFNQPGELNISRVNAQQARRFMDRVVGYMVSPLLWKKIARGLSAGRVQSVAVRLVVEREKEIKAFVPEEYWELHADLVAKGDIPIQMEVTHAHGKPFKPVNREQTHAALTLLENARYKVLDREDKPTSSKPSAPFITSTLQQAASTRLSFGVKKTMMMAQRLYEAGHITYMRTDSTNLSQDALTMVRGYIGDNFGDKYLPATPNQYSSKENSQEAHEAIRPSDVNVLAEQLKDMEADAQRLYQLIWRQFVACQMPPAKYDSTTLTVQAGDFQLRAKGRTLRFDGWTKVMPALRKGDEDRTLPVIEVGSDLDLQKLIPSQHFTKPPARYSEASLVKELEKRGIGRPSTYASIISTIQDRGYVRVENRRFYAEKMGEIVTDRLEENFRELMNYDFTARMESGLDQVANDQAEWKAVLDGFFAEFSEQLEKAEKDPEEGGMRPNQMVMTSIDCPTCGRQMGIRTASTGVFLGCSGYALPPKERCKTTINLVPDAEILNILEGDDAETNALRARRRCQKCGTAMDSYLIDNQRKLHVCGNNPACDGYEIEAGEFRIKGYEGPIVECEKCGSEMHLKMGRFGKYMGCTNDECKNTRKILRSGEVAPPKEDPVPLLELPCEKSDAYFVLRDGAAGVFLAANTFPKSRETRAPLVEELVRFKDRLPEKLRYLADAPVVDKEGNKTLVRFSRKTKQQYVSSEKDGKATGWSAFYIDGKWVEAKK

[23] = target: Glucose-6-phosphate 1-dehydrogenase (Homo sapiens, UniProt P11413); assay: inhibition of Homo sapiens G6PD, dose series – biochemical, fluorescence, selectivity assay for P. falciparum G6PD inhibitor project, dose response (AID 504792); format: functional
Chain of Glucose-6-phosphate 1-dehydrogenase (P11413 whole entry): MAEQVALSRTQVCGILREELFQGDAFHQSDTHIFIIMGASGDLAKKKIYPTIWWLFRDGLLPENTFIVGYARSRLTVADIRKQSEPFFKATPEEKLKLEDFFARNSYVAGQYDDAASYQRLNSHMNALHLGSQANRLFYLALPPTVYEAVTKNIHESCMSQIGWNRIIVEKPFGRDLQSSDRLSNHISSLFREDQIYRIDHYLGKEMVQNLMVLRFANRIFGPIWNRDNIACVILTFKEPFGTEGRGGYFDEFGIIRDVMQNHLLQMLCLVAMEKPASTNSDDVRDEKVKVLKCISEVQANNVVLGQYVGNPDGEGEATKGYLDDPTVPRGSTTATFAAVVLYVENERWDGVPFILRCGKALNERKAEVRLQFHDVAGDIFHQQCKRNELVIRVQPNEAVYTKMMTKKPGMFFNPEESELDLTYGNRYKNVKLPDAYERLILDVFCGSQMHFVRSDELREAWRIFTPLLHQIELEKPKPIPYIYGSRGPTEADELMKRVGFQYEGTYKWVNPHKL

Chain of CAAX prenyl protease 2 (Homo sapiens, UniProt Q9Y256) (Q9Y256 whole entry): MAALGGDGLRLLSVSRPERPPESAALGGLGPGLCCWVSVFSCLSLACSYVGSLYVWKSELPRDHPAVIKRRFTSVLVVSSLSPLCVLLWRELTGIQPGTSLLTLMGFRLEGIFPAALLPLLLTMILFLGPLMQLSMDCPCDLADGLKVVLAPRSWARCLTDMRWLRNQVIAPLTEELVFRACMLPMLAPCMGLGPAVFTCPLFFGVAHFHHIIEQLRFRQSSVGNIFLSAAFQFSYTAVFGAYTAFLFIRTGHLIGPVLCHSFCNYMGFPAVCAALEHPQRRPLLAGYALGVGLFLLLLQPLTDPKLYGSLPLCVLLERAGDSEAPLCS
Chain of CAAX prenyl protease 2 (Saccharomyces cerevisiae S288c, UniProt Q03530) (Q03530 whole entry): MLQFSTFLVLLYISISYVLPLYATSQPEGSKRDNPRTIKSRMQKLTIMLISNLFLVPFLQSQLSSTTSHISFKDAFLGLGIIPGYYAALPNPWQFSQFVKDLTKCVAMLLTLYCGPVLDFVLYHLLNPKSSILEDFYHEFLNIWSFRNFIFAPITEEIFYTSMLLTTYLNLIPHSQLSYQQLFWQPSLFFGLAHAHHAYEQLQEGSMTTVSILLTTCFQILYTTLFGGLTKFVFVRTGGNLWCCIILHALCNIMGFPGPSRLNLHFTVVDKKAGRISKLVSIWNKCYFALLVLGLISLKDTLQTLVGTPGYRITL

Structure (SMILES): Cc1ccc(-c2nc(CN3CCCCC3)cc(CN3CCCCC3)c2O)cc1
- AC50 [1]: 10.1 µM (active)

Structure (SMILES): COc1ccc(-c2cc(C(=O)NCCCN3CCCC3=O)c3ccccc3n2)cc1
- AC50 [2]: 18 µM (active)
- AC50 [3]: 9.31 µM (active)
- IC50 [4]: > 20 µM (inactive)
- AC50 [1]: 23.3 µM (active)

Structure (SMILES): O=C(Cn1ncc(Cl)c(Cl)c1=O)Nc1ccc2c(c1)OCO2
- IC50 [5]: 11.8 µM (inactive)
- AC50 [6]: 13.2 µM (active)
- EC50 [7]: > 59.6 µM (inactive)
- AC50 [8]: 4.07 µM (active)
- EC50 [9]: > 59.6 µM (inactive)

Structure (SMILES): OC1=C2Sc3ccccc3N=C2CCC1
- AC50 [10]: 8.45 µM (active)
- IC50 [11]: 9.55 µM (active)
- IC50 [12]: 59 µM (inactive)
- IC50 [13]: 35.2 µM (inactive)

Structure (SMILES): COc1ccc(C(=O)c2coc3c2C(=O)C(=O)c2ccccc2-3)cc1
- IC50 [14]: 11.3 µM (active)
- CC50 [15]: > 40 µM (active)
- EC50 [16]: > 150 µM (not active)
- CC50 [17]: > 25 µM (active)
- EC50 [18]: 14.7 µM (active)
- EC50 [19]: 1.84 µM (active)
- IC50 [20]: 34.5 µM (active)

Structure (SMILES): Clc1ccc(C(c2ccccc2Cl)C(Cl)(Cl)Cl)cc1 (centres undefined)
- AC50 [21]: 8.91 µM (inconclusive)

Structure (SMILES): CN(C)c1ccc2nc3ccc(=O)cc-3sc2c1
- AC50 [22]: 4.67 µM (active)
- IC50 [23]: > 80 µM (inactive)
